Experimental findings from patent US20260085293A1, “SOLUTION AND METHOD FOR TRANSPORTING OR STORING BODY FLUID SAMPLE” (PROVIGATE INC., priority 2023, published 2026) are described below.

For this test, the system named is glycoalbumin. The test can be described thus: Relative GA value of diluted pool serum with active ingredient after 2 days at 37° C., assayed by HPLC. On the set-up: species or system human. The procedure: Examples will now be described. Blood samples were diluted with diluents containing active ingredients according to the embodiments of the present disclosure, and the GA values thereof were assayed by HPLC on the same day and after two days.
First, a solution containing 10 mM of HEPES and 150 mM of NaCl was prepared. The pH was 8.0. Into this solution, an active ingredient was mixed to prepare a diluent.
In Examples 1 to 4, pool serum was used as the blood samples. The pool serum was prepared by isolating serum from venous blood taken from multiple healthy subjects and then mixing. The resulting product was mixed with the diluent described above. Into 90 μL of the diluent, 10 μL of the blood serum was introduced to prepare a 10-fold dilution (10×) assay sample.
The sample was assayed on the same day (“day 0”) or was stored in a 37° C. constant temperature reservoir for two days (“day 2”) and then assayed.
For the assay conditions, “GA detection by HPLC method” J Chromatogr 597, 271-275 (1992) was referred. Columns used were AEX:Shodex-Asahipak ES-502N (7.5 mm ID ×100 mm) (Showa Denko K.K.) and BAC:TSKgel Boronate-5PW (4.6 mm ID×100 mm) (TOSOH CORPORATION). The eluents used were glycine (JIS special grade), magnesium chloride hexahydrate (JIS special grade), D(−)-sorbitol (Wako 1st grade), ethanol (99.5%, JIS special grade), tris(hydroxymethyl)aminomethane (Tris, Biotechnology grade), and EDTA-2Na. For the analysis, Prominence HPLC system (Shimadzu Corporation) equipped with a system controller was used.
In the graphs indicated in FIGS. 2 to 5, the vertical axis indicates the ratio (relative GA value) of the GA value assayed two days (day 2) after the preparation to the GA value measured on the same day (day 0) as the preparation. When assay was carried out multiple times, the average value is indicated.
Each of the additives was dissolved in the diluent to a predetermined concentration (0.1% to 0.5%) in w/v. For example, specifically, 570 μL of the diluent containing each additive was added to 30 μL of pool serum to prepare a 20× diluted liquid. The GA% of the day 0 sample and that of the day 2 sample left to stand still for 2 days in a 37° C. constant temperature reservoir were assayed by using HPLC.

The mark [1] stands for this setting: 0.1 w/v% active ingredient in diluent.
The mark [2] stands for this setting: 0.2 w/v% active ingredient in diluent.

Regarding `OC[C@H]1O[C@H](O[C@H]2[C@H](O)[C@@H](O)[C@@H](O[C@H]3[C@H](O)[C@@H](O)C(O)O[C@@H]3CO)O[C@@H]2CO)[C@H](O)[C@@H](O)[C@@H]1O` (mixture of isomers) [MT, maltotriose], the “relative GA value (day 2 / day 0)” value reads like this: under setting [1], “about 98.2”; under setting [2], “about 99.8”. In addition, the “relative GA value (day 2 / day 0), in words” value (0.5 w/v% active ingredient in diluent, not illustrated) was “excessively large”.
As for `CN[C@@H]1[C@@H](O)[C@@H](O[C@@H]2[C@@H](O)[C@H](O[C@H]3O[C@H]([C@@H](C)O)[C@@H](O)[C@H](O)[C@H]3N)[C@@H](N)C[C@H]2N)OC[C@]1(C)O` [G418, reference compound], the “relative GA value (day 2 / day 0)” value runs as follows: under setting [1], “about 98.2”; under setting [2], “about 98.2”.
Take `CC(=O)N[C@H]1C(O)O[C@H](CO)[C@@H](O)[C@@H]1O[C@H](C)C(=O)O` (stereo partly drawn) [NAM, N-acetylmuramic acid]: the “relative GA value (day 2 / day 0)” value is recorded as “about 98.5” under setting [1] and “about 99.0” under setting [2].
Take `[H]/N=C(/N)N[C@H]1[C@H](O)[C@@H](O)[C@H](O[C@@H]2O[C@@H](C)[C@](O)(C=O)[C@H]2O[C@@H]2O[C@@H](CO)[C@H](O)[C@@H](O)[C@@H]2NC)[C@@H](N/C(N)=N\[H])[C@@H]1O` [STR, streptomycin, reference compound]: the “relative GA value (day 2 / day 0)” value is, setting by setting: under setting [1], “about 100%”; under setting [2], “about 102%”.
